In the test the target is T1, Cytochrome P450 1A2 (Homo sapiens, UniProt P05177).
T1 sequence (P05177 whole entry): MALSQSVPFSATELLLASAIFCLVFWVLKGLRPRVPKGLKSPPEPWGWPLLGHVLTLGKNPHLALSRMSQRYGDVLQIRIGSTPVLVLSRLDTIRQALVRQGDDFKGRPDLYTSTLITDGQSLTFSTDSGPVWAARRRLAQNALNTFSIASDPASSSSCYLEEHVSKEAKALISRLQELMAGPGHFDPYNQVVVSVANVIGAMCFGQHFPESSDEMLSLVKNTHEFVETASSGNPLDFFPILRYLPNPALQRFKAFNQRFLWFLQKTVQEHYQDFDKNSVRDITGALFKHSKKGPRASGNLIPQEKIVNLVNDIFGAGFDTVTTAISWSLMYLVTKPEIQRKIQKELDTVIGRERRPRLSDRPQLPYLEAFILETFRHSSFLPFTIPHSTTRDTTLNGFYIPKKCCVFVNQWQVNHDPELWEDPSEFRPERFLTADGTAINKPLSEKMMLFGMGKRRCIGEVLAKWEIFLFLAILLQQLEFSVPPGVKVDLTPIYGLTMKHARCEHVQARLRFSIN
Nature of the test: Inhibition of CYP Enzyme Activity In Vitro. As for the experimental part:
The ability of the tested compounds to inhibit a panel of CYP enzymes in vitro was assessed using a series of human liver microsome assays. Half-maximal inhibitory concentration (IC50) was calculated for compounds demonstrating mean inhibition greater than 50% compared to a reference inhibitor.

The structures appear in SMILES notation.

Regarding `COc1c2ccoc2cc2oc(C)cc(=O)c12` [US11396516, Example visnagin], inhibition was half-maximal at 240 nM (IC50).

Source of the values: BindingDB's records for patent US11396516 (The General Hospital Corporation, 2022).
